{
  "source": "patent US20240417812A1",
  "about": "“METHODS FOR TREATING SOLID CANCER PATIENTS WITH CLONAL HEMATOPOIESIS OF INDETERMINATE POTENTIAL” (Olatec Therapeutics, Inc., priority 2022, published 2024)",
  "key": {"[1]": {"experiment": "Blood level in mice fed dapansutrile food pellets", "format": "in vivo, mouse", "conditions": "7.5 g/kg of dapansutrile in food (approx. 1,000 mg/kg/day)", "description": "(§1) 2×10^5 E0771 cells were mixed with matrigel and implanted orthotopically into the mammary fat pad (day 0). Mice treated with dapansutrile were fed ad libitum with food pellets containing 7.5 g dapansutrile/kg food, which started on day 3 after E0771 cell implantation and continued until being sacrificed. Mice were sacrificed on day 18 for the germline mouse model and day 15 for the chimeric mouse model. Mice typically consume about 4 g of food per day, resulting in an approximate daily dose of 0 mg/kg/day for control groups and 1,000 mg/kg/day for the treatment groups. […] Wild-type and Tet2+/− mice were fed with control food pellets without dapansutrile. Mice were sacrificed following 15-18 days after E0771 cell implantation. Tumor volumes were assessed using ½(L×W×H) measured via digital caliper."}, "[2]": {"tested_on": "keratinocyte chemoattractant (KC)", "experiment": "Plasma KC of BM chimera mice", "format": "in vivo, mouse", "conditions": "Tet2+/− chimeras, dapansutrile diet vs standard diet, p<0.05", "description": "(§2) FIGS. 5A-5B show plasma cytokine production of chemokine C-C motif ligand 2 (CCL2, 5A) and keratinocyte chemoattractant (KC, 5B) of BM chimera mice from FIG. 2"}, "Tet2+/− clones": {"tested_on": "Tet2+/− clones", "experiment": "Expansion of Tet2+/− clones in tumor-bearing BM chimera mice", "format": "in vivo, mouse", "conditions": "dapansutrile diet", "description": "To create a mouse model that more closely resembles human CHIP, we generated mice with chimeric bone marrow (BM) that was 75% wild type (WT), and 25% Tet2 […] (Tet2+/+) or heterozygous (Tet2+/−). To identify the contribution of WT or Tet2+/− cells to hematopoiesis, we used the pan hematopoietic marker CD45. We used two congenic mouse strains with variants in CD45 C57BL/6 and Boy/J (CD45.2 and CD45.1, respectively), which can be identified with fluorescently labeled antibodies using flow cytometry analysis. To generate the chimeric BM, we lethally irradiated Boy/J recipient mice (CD45.1) with an 11gy split-dose administered three hours apart. Irradiated recipient mice were then transplanted with 2 million unfractionated BM cells that were a mix of 75% CD45.1 WT and 25% CD45.2\nTet2+/+ or Tet2+/−. Cells were given via a retro-orbital (RO) sinus injection. To monitor the engraftment of donor-derived cells, mice were bled every four weeks via the submandibular vein. […]\n(§3) After 6 weeks of engraftment, mice were given breast tumors via orthotopic transplantation of breast cancer cells. Tumor progression was assessed by measuring the volume of the tumor in the mouse using calipers. […]\nIn this example, we first assessed the extent to which Tet2-deficient myeloid cells infiltrated into peripheral blood (FIG. 3A) and in the tumor (FIG. 3B)."}, "IL-1β": {"tested_on": "IL-1β", "experiment": "IL-1β production from bone marrow adherent cells isolated from tumor-bearing mice (ELISA)", "format": "cell-based, mouse", "conditions": "adherent bone marrow cells from tumor-bearing Tet2+/− mice, LPS stimulated, dapansutrile treated vs untreated; p<0.05", "description": "Bone marrow cells from tumor-bearing mice was collected and filtered through […] cell strainer. 3×10^6 cells were plated in 24-well plates and incubated overnight. The next day to non-adherent fraction was removed and the adherent fraction was treated with 10 μM dapansutrile and were cultured in RPMI supplemented with 10% FBS, 100 units/ml penicillin and 0.1 mg/ml streptomycin for 24 hours. Cytokines were measured in cell culture supernatants using DuoSet ELISA (R&D Systems).\nBone marrow cells were collected from the four long bones as described above and filtered through a […] cell strainer prior to counting. 1×10^6 cells were plated in flat bottom tissue culture plates and incubated overnight. The next day the non-adherent fraction was removed and the adherent fraction was used for downstream experiments.\nFor western blot and cytokine analysis, adherent bone marrow cells were stimulated±LPS (100 ng/mL) and cultured for an additional 24 hours. Cells were cultured in RPMI supplemented with 10% FBS, 100 units/ml penicillin and 0.1 mg/ml streptomycin. […] Cytokines were measured in cell culture supernatants using DuoSet ELISA (R&D Systems).\nNext, we assessed the inflammatory potential of myeloid cells from tumor-bearing mice. […]"}, "[3]": {"conditions": "orally administered to healthy subjects; cited from earlier work"}, "E0771 cells [4]": {"tested_on": "E0771 cells", "experiment": "E0771 orthotopic breast tumor model in Tet2+/+ or Tet2+/− bone marrow chimeric mice", "format": "in vivo, mouse", "description": "as §1\nTo create a mouse model that more closely resembles human CHIP, we generated mice with chimeric bone marrow (BM) that was 75% wild type (WT), and 25% Tet2 […] (Tet2+/+) or heterozygous (Tet2+/−). To identify the contribution of WT or Tet2+/− cells to hematopoiesis, we used the pan hematopoietic marker CD45. […]\nas §3"}, "[5]": {"tested_on": "chemokine C-C motif ligand 2 (CCL2)", "experiment": "Plasma CCL2 of BM chimera mice", "format": "in vivo, mouse", "conditions": "Tet2+/− chimeras, dapansutrile diet vs standard diet, p<0.05", "description": "as §2"}, "[6]": {"conditions": "humans treated orally at 1000 mg/day; cited from earlier work"}, "E0771 cells [7]": {"tested_on": "E0771 cells", "experiment": "E0771 orthotopic breast tumor model in germline Tet2+/+ or Tet2+/− mice", "format": "in vivo, mouse", "description": "6-8 week old B6(Cg)-Tet2tm1.2Rao/J (JAX) female mice heterozygous for Tet2 allele or wild-type for Tet2 allele were purchased for Jackson Laboratories.\nThe murine metastatic mammary cancer cell line E0771 was purchased from ATCC. E0771 cells were cultured in RPMI (Corning) supplemented with 10% FBS, 1% HEPES, 100 units/ml penicillin and 0.1 mg/ml streptomycin. Cells were maintained in a humidified 5% CO2 atmosphere at 37° C.\nas §1\nMyeloid cells are the predominant source of tumor-promoting IL-1β in the breast cancer TME, and TET2 mutations have been reported in tumor-infiltrating leukocytes. […] We orthotopically implanted the murine metastatic luminal B breast cancer cell line, E0771, into Tet2+/+ (WT) or Tet2+/− germline mice. Three days after implantation, mice were placed on a control chow diet or a nutritionally identical diet enriched with OLT1177® (dapansutrile) for 15 days. Mice were sacrificed following […] after E0771 cell implantation."}, "NLRP3 inflammasome": {"biological_target": "NLRP3 inflammasome (Homo sapiens, UniProt Q96P20)", "sequence (Q96P20 whole entry)": "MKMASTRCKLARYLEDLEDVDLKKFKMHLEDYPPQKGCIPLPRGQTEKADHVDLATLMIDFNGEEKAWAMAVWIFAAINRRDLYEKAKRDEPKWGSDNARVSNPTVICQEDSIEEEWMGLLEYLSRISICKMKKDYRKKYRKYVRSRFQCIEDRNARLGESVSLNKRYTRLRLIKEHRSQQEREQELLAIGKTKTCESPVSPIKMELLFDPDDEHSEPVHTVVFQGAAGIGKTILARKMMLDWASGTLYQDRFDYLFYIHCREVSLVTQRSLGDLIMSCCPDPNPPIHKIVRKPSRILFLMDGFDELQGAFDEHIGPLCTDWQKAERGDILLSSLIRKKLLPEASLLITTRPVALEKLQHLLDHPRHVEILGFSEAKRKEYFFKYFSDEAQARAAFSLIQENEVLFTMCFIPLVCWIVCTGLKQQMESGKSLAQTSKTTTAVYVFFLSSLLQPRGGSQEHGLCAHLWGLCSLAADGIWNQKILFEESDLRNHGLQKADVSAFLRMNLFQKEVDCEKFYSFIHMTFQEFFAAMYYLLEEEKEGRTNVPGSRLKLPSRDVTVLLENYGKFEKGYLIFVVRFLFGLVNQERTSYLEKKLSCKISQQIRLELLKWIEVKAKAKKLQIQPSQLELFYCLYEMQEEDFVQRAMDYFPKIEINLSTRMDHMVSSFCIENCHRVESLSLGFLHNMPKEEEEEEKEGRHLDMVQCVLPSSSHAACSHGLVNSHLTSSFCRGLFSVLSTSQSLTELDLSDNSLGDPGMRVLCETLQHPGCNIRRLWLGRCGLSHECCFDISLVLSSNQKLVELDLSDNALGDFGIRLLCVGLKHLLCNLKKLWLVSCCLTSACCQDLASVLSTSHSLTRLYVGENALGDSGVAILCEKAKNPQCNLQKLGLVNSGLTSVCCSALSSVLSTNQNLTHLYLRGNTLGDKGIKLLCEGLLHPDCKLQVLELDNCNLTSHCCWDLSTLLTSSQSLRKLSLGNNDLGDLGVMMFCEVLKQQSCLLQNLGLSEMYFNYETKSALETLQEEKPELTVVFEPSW", "conditions": "cited from earlier work"}, "[8]": {"tested_on": "tumor-infiltrating granulocytes", "experiment": "Flow cytometry of tumor-infiltrating granulocytes of BM chimera mice", "format": "in vivo, mouse", "conditions": "Tet2+/− chimeras", "description": "After 6 weeks of engraftment, mice were given breast tumors via orthotopic transplantation of breast cancer cells. Tumor progression was assessed by measuring the volume of the tumor in the mouse using calipers. After 15 days, mice were sacrificed, and their bone marrow, peripheral blood, and tumors were harvested for flow cytometry analysis to determine the levels of immune cell populations and relative contribution from WT or Tet2+/+ or Tet2+/− bone marrow cells.\nBone marrow isolation and cell staining was performed on ice in staining medium (SM; Hanks Balanced Salt Solution [HBSS 1×, Corning 1-022-CM] supplemented with heat inactivated fetal bovine serum [FBS, VWR 97068-05] to a final concentration of 2%). Femurs and tibiae were flushed with 3 mL of SM and followed by RBC lysis with ACK lysis buffer. Peripheral blood was isolated via the heart and placed into RBC lysis buffer. After RBC lysis cells were incubated on ice for 30 minutes with antibody cocktails prior to being washed and resuspended in SM containing propidium iodide to stain dead cells. Flow cytometry was performed on the BD FACSCelesta."}},
  "note": "Read-outs that look alike come from different tables or passages of the source.",
  "data": [
    {"smiles": "CS(=O)(=O)CCC#N", "note": "[dapansutrile, 3-methanesulfonyl-propionitrile]", "values": [
      {"measurement": "blood level", "setting": "[1]", "value": "~40000", "unit": "ng/mL"},
      {"measurement": "circulating KC", "setting": "[2]", "value": "significantly decreased"},
      {"measurement": "expansion of Tet2+/− clones", "setting": "Tet2+/− clones", "value": "able to reduce"},
      {"measurement": "IL-1β secretion", "setting": "IL-1β", "value": "significantly less"},
      {"measurement": "safety", "setting": "[3]", "value": "safe"},
      {"measurement": "tumor growth", "setting": "E0771 cells [4]; Tet2+/+ chimeric mice, dapansutrile diet, to baseline level equivalent to dapansutrile-treated Tet2+/− chimeric mice", "value": "suppressed tumor growth"},
      {"measurement": "tumor growth", "setting": "E0771 cells [4]; Tet2+/− chimeric mice, dapansutrile diet from day 3 vs control chow, p<0.001", "value": "suppressed"},
      {"measurement": "circulating CCL2", "setting": "[5]", "value": "significantly decreased"},
      {"measurement": "blood level", "setting": "[6]", "value": 40000, "unit": "ng/mL"},
      {"measurement": "tumor growth", "setting": "E0771 cells [7]; Tet2+/+ (WT) germline mice on dapansutrile vs standard diet, p<0.05", "value": "significantly decreased"},
      {"measurement": "tumor growth, difference between genotypes", "setting": "E0771 cells [7]; Tet2+/+ (WT) vs Tet2+/− mice, both on dapansutrile diet", "value": "No changes in tumor growth"},
      {"measurement": "tumor growth reduction", "setting": "E0771 cells [7]; Tet2+/− germline mice, dapansutrile diet (7.5 g/kg food, from day 3) vs Tet2+/− on standard diet, p<0.01", "value": 68, "unit": "%"},
      {"measurement": "NLRP3 inflammasome inhibition", "setting": "NLRP3 inflammasome", "value": "selectively inhibit"},
      {"measurement": "tumor-infiltrating granulocytes (frequency)", "setting": "[8]; dapansutrile diet vs standard diet, p<0.05", "value": "significantly decreased"},
      {"measurement": "MHC-II expression (gMFI) on tumor-infiltrating granulocytes", "setting": "[8]; dapansutrile diet, p<0.001", "value": "rescued"}
    ]}
  ]
}
